From PMC3540847 (Journal of Lipid Research, 2012)
Counter-ions that a name gives are not always drawn.

What was measured:
hASBT = target: T1, hASBT (Homo sapiens, UniProt Q12908); test: competition of 3H-TCA uptake, transfected COS-7 cells; assay type: cell-based; conditions: 10 μM 3H-TCA, Na+ medium, 10 min
T1 sequence (Q12908 1-348): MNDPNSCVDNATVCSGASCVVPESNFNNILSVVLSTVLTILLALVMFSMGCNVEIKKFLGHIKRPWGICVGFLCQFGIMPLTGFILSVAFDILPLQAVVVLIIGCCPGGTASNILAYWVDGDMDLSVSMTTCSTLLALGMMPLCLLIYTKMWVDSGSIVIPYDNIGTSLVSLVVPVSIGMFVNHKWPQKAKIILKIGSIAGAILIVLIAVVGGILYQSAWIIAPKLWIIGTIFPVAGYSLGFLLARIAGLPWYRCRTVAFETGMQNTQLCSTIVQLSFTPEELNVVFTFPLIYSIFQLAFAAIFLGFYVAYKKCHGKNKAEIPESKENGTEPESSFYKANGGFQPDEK

skAsbt = target: T2, skAsbt (Leucoraja erinaceus, UniProt I4CJQ7); test: as above; assay type: cell-based; conditions: 10 μM 3H-TCA, Na+ medium, 10 min
T2 sequence (I4CJQ7 1-393): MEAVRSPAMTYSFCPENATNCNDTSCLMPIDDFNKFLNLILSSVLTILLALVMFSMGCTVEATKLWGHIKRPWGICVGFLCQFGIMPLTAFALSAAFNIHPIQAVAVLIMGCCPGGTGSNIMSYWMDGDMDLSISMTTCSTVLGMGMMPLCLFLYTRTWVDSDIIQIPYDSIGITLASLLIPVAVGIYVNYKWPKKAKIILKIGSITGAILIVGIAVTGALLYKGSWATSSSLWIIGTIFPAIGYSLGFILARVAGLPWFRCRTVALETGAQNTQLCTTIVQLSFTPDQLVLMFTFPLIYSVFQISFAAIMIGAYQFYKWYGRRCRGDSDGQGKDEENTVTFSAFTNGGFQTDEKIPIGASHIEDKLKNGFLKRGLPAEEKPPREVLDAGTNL

C[C@H](CCC(=O)NCCS(=O)(=O)O)[C@H]1CC[C@H]2[C@@H]3[C@H](O)C[C@@H]4C[C@H](O)CC[C@]4(C)[C@H]3CC[C@]12C [TCDCA]
inhibition of uptake at 100 μM (hASBT): significantly reduced ^3H-TCA transport activity in both skAsbt and hASBT | inhibition of uptake at 100 μM (skAsbt): significantly reduced ^3H-TCA transport activity in both skAsbt and hASBT

C[C@H](CCC(=O)NCC(=O)O)[C@H]1CC[C@H]2[C@@H]3[C@H](O)C[C@@H]4C[C@H](O)CC[C@]4(C)[C@H]3CC[C@]12C [GCDCA]
inhibition of uptake at 100 μM (hASBT): significantly reduced ^3H-TCA transport activity in both skAsbt and hASBT | inhibition of uptake at 100 μM (skAsbt): significantly reduced ^3H-TCA transport activity in both skAsbt and hASBT

C[C@H](CCC(=O)NCCS(=O)(=O)O)[C@H]1CC[C@H]2[C@@H]3CC[C@@H]4C[C@H](OS(=O)(=O)O)CC[C@]4(C)[C@H]3CC[C@]12C [taurolithocholic acid-3-sulfate]
inhibition of uptake at 100 μM (skAsbt): significantly reduced ^3H-TCA transport activity in both skAsbt and hASBT

O=C1OC(c2ccc(O)c(S(=O)(=O)O)c2)(c2ccc(O)c(S(=O)(=O)O)c2)c2c(Br)c(Br)c(Br)c(Br)c21 [bromosulfophtalein]
inhibition of uptake at 100 μM (hASBT): bromosulfophtalein significantly inhibited both transporters | inhibition of uptake at 100 μM (skAsbt): bromosulfophtalein significantly inhibited both transporters

C[C@H](CCC(=O)NCCS(=O)(=O)O)[C@H]1CC[C@H]2[C@@H]3CC[C@@H]4C[C@H](O)CC[C@]4(C)[C@H]3CC[C@]12C [taurolithocholic acid]
inhibition of uptake at 100 μM (hASBT): significantly reduced ^3H-TCA transport activity in both skAsbt and hASBT | inhibition of uptake at 100 μM (skAsbt): significantly reduced ^3H-TCA transport activity in both skAsbt and hASBT

C[C@H](CCCOS(=O)(=O)O)[C@H]1CC[C@H]2[C@@H]3[C@H](O)C[C@H]4C[C@H](O)CC[C@]4(C)[C@H]3C[C@H](O)[C@]12C [5α-PZS]
inhibition of uptake at 100 μM (hASBT): significantly reduced ^3H-TCA transport activity in both skAsbt and hASBT | inhibition of uptake at 100 μM (skAsbt): significantly reduced ^3H-TCA transport activity in both skAsbt and hASBT

C[C@H](CCC(=O)NCCS(=O)(=O)O)[C@H]1CC[C@H]2[C@@H]3[C@@H](O)C[C@@H]4C[C@H](O)CC[C@]4(C)[C@H]3CC[C@]12C [TUDCA]
inhibition of uptake at 100 μM (hASBT): TUDCA effectively reduced ^3H-TCA transport activity in hASBT but not in skAsbt

C[C@H](CCCC(CO)COS(=O)(=O)O)[C@H]1CC[C@H]2[C@@H]3[C@H](O)C[C@H]4C[C@H](O)CC[C@]4(C)[C@H]3C[C@H](O)[C@]12C (stereo partly drawn) [5α-cyprinol sulfate]
inhibition of uptake at 100 μM (hASBT): significantly reduced ^3H-TCA transport activity in both skAsbt and hASBT | inhibition of uptake at 100 μM (skAsbt): significantly reduced ^3H-TCA transport activity in both skAsbt and hASBT
